Source: patent publication US8445503B2, “Inhibitors of polo-like kinase” (Elan Pharmaceuticals, Inc., priority 2009, dated 2013)
Like-named read-outs stand apart in the source and are kept apart here.

What was measured:
Type in all cases: biochemical
GST-PLK1 = GST-PLK1 (Homo sapiens, UniProt P53350); experiment: PLK TR-FRET peptide assay, PLK1; conditions: read-out: Plk1 IC50
GST-PLK3 = target: T1, GST-PLK3 (Homo sapiens, UniProt Q9H4B4); experiment: PLK TR-FRET peptide assay, PLK3
T1 construct: purchased CarnaBio
T1 sequence (Q9H4B4 whole entry): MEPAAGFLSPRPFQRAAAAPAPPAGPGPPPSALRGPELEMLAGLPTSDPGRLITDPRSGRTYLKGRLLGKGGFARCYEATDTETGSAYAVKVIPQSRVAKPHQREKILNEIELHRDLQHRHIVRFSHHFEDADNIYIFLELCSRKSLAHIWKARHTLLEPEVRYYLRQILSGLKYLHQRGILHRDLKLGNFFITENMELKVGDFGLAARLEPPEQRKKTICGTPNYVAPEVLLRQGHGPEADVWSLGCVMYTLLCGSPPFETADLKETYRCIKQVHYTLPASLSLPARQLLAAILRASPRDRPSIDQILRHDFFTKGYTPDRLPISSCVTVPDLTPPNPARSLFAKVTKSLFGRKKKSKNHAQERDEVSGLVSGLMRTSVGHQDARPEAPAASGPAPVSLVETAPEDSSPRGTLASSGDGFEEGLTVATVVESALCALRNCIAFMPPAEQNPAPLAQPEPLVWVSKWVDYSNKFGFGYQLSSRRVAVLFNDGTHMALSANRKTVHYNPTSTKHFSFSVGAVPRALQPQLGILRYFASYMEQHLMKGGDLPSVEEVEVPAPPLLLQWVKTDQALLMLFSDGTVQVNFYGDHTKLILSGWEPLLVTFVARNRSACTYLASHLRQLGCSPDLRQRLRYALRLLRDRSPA

GST-PLK2 = target: T2, GST-PLK2 (Homo sapiens, UniProt Q9NYY3); experiment: PLK TR-FRET peptide assay, PLK2; conditions: read-out: Plk2 IC50
T2 construct: purchased CarnaBio
T2 sequence (Q9NYY3 whole entry): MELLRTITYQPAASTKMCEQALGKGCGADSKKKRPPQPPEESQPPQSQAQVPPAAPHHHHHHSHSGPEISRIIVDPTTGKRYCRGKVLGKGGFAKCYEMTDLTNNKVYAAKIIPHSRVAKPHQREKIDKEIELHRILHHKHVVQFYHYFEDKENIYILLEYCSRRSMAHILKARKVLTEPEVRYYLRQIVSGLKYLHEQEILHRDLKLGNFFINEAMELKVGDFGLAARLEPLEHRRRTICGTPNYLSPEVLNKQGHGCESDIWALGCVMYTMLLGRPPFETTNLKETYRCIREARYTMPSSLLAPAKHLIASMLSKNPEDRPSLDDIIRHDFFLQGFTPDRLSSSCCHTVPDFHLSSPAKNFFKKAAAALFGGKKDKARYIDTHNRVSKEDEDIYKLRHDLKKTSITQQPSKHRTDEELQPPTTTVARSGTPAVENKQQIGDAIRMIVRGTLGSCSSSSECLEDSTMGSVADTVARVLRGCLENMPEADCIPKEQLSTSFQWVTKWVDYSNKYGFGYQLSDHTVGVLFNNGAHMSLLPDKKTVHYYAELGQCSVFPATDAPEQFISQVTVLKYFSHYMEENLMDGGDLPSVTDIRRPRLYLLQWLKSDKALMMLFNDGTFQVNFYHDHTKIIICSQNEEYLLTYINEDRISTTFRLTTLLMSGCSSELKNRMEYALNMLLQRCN

[1] = PLK TR-FRET peptide assay, GST-PLK3; read-out: Plk3 IC50
[2] = PLK TR-FRET peptide assay, GST-PLK2

Sequence of GST-PLK1 (P53350 whole entry): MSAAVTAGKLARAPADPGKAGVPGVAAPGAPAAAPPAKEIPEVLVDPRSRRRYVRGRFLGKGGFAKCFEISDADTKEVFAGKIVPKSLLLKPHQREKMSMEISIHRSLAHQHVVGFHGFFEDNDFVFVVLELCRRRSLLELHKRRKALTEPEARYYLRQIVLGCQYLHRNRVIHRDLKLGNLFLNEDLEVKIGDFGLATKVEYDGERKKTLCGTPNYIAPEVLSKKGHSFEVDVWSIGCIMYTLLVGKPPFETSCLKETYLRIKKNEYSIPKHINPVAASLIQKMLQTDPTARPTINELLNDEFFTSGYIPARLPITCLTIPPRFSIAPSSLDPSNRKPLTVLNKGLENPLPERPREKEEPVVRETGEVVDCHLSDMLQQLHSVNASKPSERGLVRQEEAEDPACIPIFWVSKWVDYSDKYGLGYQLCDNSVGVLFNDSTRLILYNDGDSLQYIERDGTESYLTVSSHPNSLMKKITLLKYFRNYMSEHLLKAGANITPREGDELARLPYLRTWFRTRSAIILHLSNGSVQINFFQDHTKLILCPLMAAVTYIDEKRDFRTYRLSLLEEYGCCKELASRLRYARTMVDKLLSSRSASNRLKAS

| IC50 (GST-PLK1) [µM] | IC50 (GST-PLK3; [1]) [µM] | IC50 (GST-PLK2; [2]) [µM] | SMILES | IC50 (GST-PLK3; read-out: Plk3 IC50; PLK TR-FRET peptide assay, GST-PLK3) [µM] | IC50 (GST-PLK2) [µM] |
| --- | --- | --- | --- | --- | --- |
| < 1 | < 1 | < 1 | CC[C@@H]1C(=O)N(C)c2cnc(-c3cnoc3-c3ccccc3)nc2N1C1CCCC1 [Example 133, (R)-8-cyclopentyl-7-ethyl-5-methyl-2-(5-phenylisoxazol-4-yl)-7,8-dihydropteridin-6(5H)-one] |  |  |
| < 1 | < 1 | < 1 | CC[C@@H]1C(=O)N(C)c2cnc(-c3cn[nH]c3-c3ccccc3)nc2N1C1CCCC1 [Example 134, (R)-8-cyclopentyl-7-ethyl-5-methyl-2-(5-phenyl-1H-pyrazol-4-yl)-7,8-dihydropteridin-6(5H)-one] |  |  |
| < 1 | < 1 | < 1 | CC[C@@H]1C(=O)N(C)c2cnc(-n3ncnc3-c3ccccc3)nc2N1C1CCCC1 [Example 135, (R)-8-cyclopentyl-7-ethyl-5-methyl-2-(5-phenyl-1H-1,2,4-triazol-1-yl)-7,8-dihydropteridin-6(5H)-one] |  |  |
| > 50 | > 50 | 1 to 10 | CC[C@@]12CCCN1c1nc(-n3ccnc3-c3cccnc3)ncc1N(C)C2=O [Example 137, (S)-6a-ethyl-5-methyl-2-(2-(pyridin-3-yl)-1H-imidazol-1-yl)-6a,7,8,9-tetrahydropyrrolo[2,1-h]pteridin-6(5H)-one] |  |  |
| < 1 | < 1 | < 1 | CC[C@@H]1C(=O)N(C)c2cnc(-c3cnncc3-c3ccccc3)nc2N1C1CCCC1 [Example 139, (R)-8-cyclopentyl-7-ethyl-5-methyl-2-(5-phenylpyridazin-4-yl)-7,8-dihydropteridin-6(5H)-one] |  |  |
| 1 to 10 | > 50 | < 1 | CC[C@@H]1C(=O)N(C)c2cnc(-n3ccnc3-c3cnccn3)nc2N1C1CCOCC1 [Example 140, (R)-7-ethyl-5-methyl-2-(2-(pyrazin-2-yl)-1H-imidazol-1-yl)-8-(tetrahydro-2H-pyran-4-yl)-7,8-dihydropteridin-6(5H)-one] |  |  |
| > 50 | > 50 | 1 to 10 | CC[C@@]12CCCN1c1nc(-n3ccnc3-c3cnccn3)ncc1N(C)C2=O [Example 144, (S)-6a-ethyl-5-methyl-2-(2-(pyrazin-2-yl)-1H-imidazol-1-yl)-6a,7,8,9-tetrahydropyrrolo[2,1-h]pteridin-6(5H)-one] |  |  |
| 10 to 50 | 10 to 50 | 1 to 10 | CC[C@@]12CCCN1c1nc(-n3ccnc3-c3ccccn3)ncc1N(C)C2=O [Example 145, (S)-6a-ethyl-5-methyl-2-(2-(pyridin-2-yl)-1H-imidazol-1-yl)-6a,7,8,9-tetrahydropyrrolo[2,1-h]pteridin-6(5H)-one] |  |  |
| > 50 | > 50 | 1 to 10 | CC[C@@H]1C(=O)N(C)c2cnc(-n3ccnc3-c3ccncc3)nc2N1C1CC1 [Example 147, (R)-8-cyclopropyl-7-ethyl-5-methyl-2-(2-(pyridin-4-yl)-1H-imidazol-1-yl)-7,8-dihydropteridin-6(5H)-one] |  |  |
| 1 to 10 | 10 to 50 | < 1 | CC[C@@H]1C(=O)N(C)c2cnc(-n3ccnc3-c3ncccn3)nc2N1C(C)C [Example 148, (R)-7-ethyl-8-isopropyl-5-methyl-2-(2-(pyrimidin-2-yl)-1H-imidazol-1-yl)-7,8-dihydropteridin-6(5H)-one] |  |  |
| 10 to 50 | 10 to 50 | < 1 | CC[C@@H]1C(=O)N(C)c2cnc(-n3ccnc3-c3cncnc3)nc2N1C(C)C [Example 149, (R)-7-ethyl-8-isopropyl-5-methyl-2-(2-(pyrimidin-5-yl)-1H-imidazol-1-yl)-7,8-dihydropteridin-6(5H)-one] |  |  |
| 10 to 50 | > 50 | < 1 | CC[C@@H]1C(=O)N(C)c2cnc(-n3ccnc3-c3cccnn3)nc2N1C(C)C [Example 152, (R)-7-ethyl-8-isopropyl-5-methyl-2-(2-(pyridazin-3-yl)-1H-imidazol-1-yl)-7,8-dihydropteridin-6(5H)-one] |  |  |
| 1 to 10 | 1 to 10 | < 1 | CC[C@@H]1C(=O)N(C)c2cnc(-n3ccnc3-c3ccccn3)nc2N1C(C)C [Example 153, (R)-7-ethyl-8-isopropyl-5-methyl-2-(2-(pyridin-2-yl)-1H-imidazol-1-yl)-7,8-dihydropteridin-6(5H)-one] |  |  |
| 1 to 10 | 10 to 50 | < 1 | CC[C@@H]1C(=O)N(C)c2cnc(-n3ccnc3-c3cccnc3)nc2N1C(C)C [Example 154, (R)-7-ethyl-8-isopropyl-5-methyl-2-(2-(pyridin-3-yl)-1H-imidazol-1-yl)-7,8-dihydropteridin-6(5H)-one] |  |  |
| 1 to 10 | 10 to 50 | < 1 | CC[C@@H]1C(=O)N(C)c2cnc(-n3ccnc3-c3nccs3)nc2N1C1CCOCC1 [Example 157, (R)-7-ethyl-5-methyl-8-(tetrahydro-2H-pyran-4-yl)-2-(2-(thiazol-2-yl)-1H-imidazol-1-yl)-7,8-dihydropteridin-6(5H)-one] |  |  |
| < 1 | 1 to 10 | < 1 | CC[C@@H]1C(=O)N(C)c2cnc(-n3ccnc3-c3cncnc3)nc2N1C1CCCC1 [Example 159, (R)-8-cyclopentyl-7-ethyl-5-methyl-2-(2-(pyrimidin-5-yl)-1H-imidazol-1-yl)-7,8-dihydropteridin-6(5H)-one] |  |  |
| 1 to 10 | > 50 | < 1 | CC[C@@H]1C(=O)N(C)c2cnc(-n3ccnc3-c3cncnc3)nc2N1C1CCC1 [Example 176, (R)-8-cyclobutyl-7-ethyl-5-methyl-2-(2-(pyrimidin-5-yl)-1H-imidazol-1-yl)-7,8-dihydropteridin-6(5H)-one] |  |  |
| 1 to 10 | 10 to 50 | < 1 | CC[C@@H]1C(=O)N(C)c2cnc(-n3ccnc3-c3ncccn3)nc2N1C1CCC1 [Example 183, (R)-8-cyclobutyl-7-ethyl-5-methyl-2-(2-(pyrimidin-2-yl)-1H-imidazol-1-yl)-7,8-dihydropteridin-6(5H)-one] |  |  |
| 1 to 10 | 1 to 10 | < 1 | CC[C@@]12CCCN1c1nc(-n3ncnc3-c3ccccc3)ncc1N(C)C2=O [Example 189, (S)-6a-ethyl-5-methyl-2-(5-phenyl-1H-1,2,4-triazol-1-yl)-6a,7,8,9-tetrahydropyrrolo[2,1-h]pteridin-6(5H)-one] |  |  |
| 1 to 10 | 10 to 50 | < 1 | CC[C@@H]1C(=O)N(C)c2cnc(-n3ccnc3-c3nccs3)nc2N1C1CCOC1 (stereo partly drawn) [Example 221, (7R)-7-ethyl-5-methyl-8-(tetrahydrofuran-3-yl)-2-(2-(thiazol-2-yl)-1H-imidazol-1-yl)-7,8-dihydropteridin-6(5H)-one] |  |  |
| < 1 | 1 to 10 | < 1 | CC[C@@H]1C(=O)N(C)c2cnc(-c3n[nH]cc3-c3ccccc3)nc2N1C1CCCC1 [Example 245, (R)-8-cyclopentyl-7-ethyl-5-methyl-2-(4-phenyl-1H-pyrazol-3-yl)-7,8-dihydropteridin-6(5H)-one] |  |  |
| > 50 | > 50 | > 50 | CCC1C(=O)Nc2cnc(-n3ccnc3-c3ccccc3)nc2N1NC(=O)OC(C)(C)C (stereo not drawn) [Example 274, tert-Butyl 7-ethyl-6-oxo-2-(2-phenyl-1H-imidazol-1-yl)-6,7-dihydropteridin-8(5H)-ylcarbamate] |  |  |
| > 50 | > 50 | 10 to 50 | CCC1C(=O)N(C)c2cnc(-n3ccnc3-c3ccccc3)nc2N1NC(=O)OC(C)(C)C (stereo not drawn) [Example 275, tert-butyl 7-ethyl-5-methyl-6-oxo-2-(2-phenyl-1H-imidazol-1-yl)-6,7-dihydropteridin-8(5H)-ylcarbamate] |  |  |
| 10 to 50 | 10 to 50 | < 1 | CCC1C(=O)N(C)c2cnc(-n3ccnc3-c3ccccc3)nc2N1N (stereo not drawn) [Example 278, 8-amino-7-ethyl-5-methyl-2-(2-phenyl-1H-imidazol-1-yl)-7,8-dihydropteridin-6(5H)-one] |  |  |
| < 1 | 10 to 50 | < 1 | CCC1C(=O)N(C)c2cnc(-n3ccnc3-c3ccccc3)nc2N1N1CCCC1 (stereo not drawn) [Example 280, 7-ethyl-5-methyl-2-(2-phenyl-1H-imidazol-1-yl)-8-(pyrrolidin-1-yl)-7,8-dihydropteridin-6(5H)-one] |  |  |
| 1 to 10 | 1 to 10 | < 1 | CCC1C(=O)N(C)c2cnc(-n3ccnc3-c3ccc(F)cc3)nc2N1c1ccccc1 (stereo not drawn) [Example 291, 7-ethyl-2-(2-(4-fluorophenyl)-1H-imidazol-1-yl)-5-methyl-8-phenyl-7,8-dihydropteridin-6(5H)-one] |  |  |
| < 1 | 1 to 10 | < 1 | CC[C@@H]1C(=O)N(C)c2cnc(-c3cnsc3-c3ccc(F)cc3)nc2N1C(C)C [Example 296, (R)-7-ethyl-2-(5-(4-fluorophenyl)isothiazol-4-yl)-8-isopropyl-5-methyl-7,8-dihydropteridin-6(5H)-one] |  |  |

| SMILES | IC50 (GST-PLK1) [µM] | IC50 (GST-PLK3; [1]) [µM] | IC50 (GST-PLK2; [2]) [µM] | IC50 (GST-PLK3; read-out: Plk3 IC50; PLK TR-FRET peptide assay, GST-PLK3) [µM] | IC50 (GST-PLK2) [µM] |
| --- | --- | --- | --- | --- | --- |
| CC[C@@H]1C(=O)N(C)c2cnc(-c3nccnc3-c3ccccc3)nc2N1C1CCCC1 [Example 138, (R)-8-cyclopentyl-7-ethyl-5-methyl-2-(3-phenylpyrazin-2-yl)-7,8-dihydropteridin-6(5H)-one] | < 1 |  |  | < 1 | < 1 |
| CC[C@@H]1C(=O)N(C)c2cnc(-n3nccc3-c3ccccc3)nc2N1C(C)C [Example 188, (R)-7-ethyl-8-isopropyl-5-methyl-2-(5-phenyl-1H-pyrazol-1-yl)-7,8-dihydropteridin-6(5H)-one] | < 1 | 1 to 10 | < 1 |  |  |
| CC[C@@H]1C(=O)N(C)c2cnc(-n3ncnc3-c3ccccc3)nc2N1C(C)C [Example 195, (R)-7-ethyl-8-isopropyl-5-methyl-2-(5-phenyl-1H-1,2,4-triazol-1-yl)-7,8-dihydropteridin-6(5H)-one] | < 1 | < 1 | < 1 |  |  |
